The text below walks through data of BindingDB's records for PubMed 32163814 (n/a, 2020).

Experiment [1] addresses T1, Histone deacetylase 6 (Homo sapiens, UniProt Q9UBN7).
T1 sequence (Q9UBN7 whole entry): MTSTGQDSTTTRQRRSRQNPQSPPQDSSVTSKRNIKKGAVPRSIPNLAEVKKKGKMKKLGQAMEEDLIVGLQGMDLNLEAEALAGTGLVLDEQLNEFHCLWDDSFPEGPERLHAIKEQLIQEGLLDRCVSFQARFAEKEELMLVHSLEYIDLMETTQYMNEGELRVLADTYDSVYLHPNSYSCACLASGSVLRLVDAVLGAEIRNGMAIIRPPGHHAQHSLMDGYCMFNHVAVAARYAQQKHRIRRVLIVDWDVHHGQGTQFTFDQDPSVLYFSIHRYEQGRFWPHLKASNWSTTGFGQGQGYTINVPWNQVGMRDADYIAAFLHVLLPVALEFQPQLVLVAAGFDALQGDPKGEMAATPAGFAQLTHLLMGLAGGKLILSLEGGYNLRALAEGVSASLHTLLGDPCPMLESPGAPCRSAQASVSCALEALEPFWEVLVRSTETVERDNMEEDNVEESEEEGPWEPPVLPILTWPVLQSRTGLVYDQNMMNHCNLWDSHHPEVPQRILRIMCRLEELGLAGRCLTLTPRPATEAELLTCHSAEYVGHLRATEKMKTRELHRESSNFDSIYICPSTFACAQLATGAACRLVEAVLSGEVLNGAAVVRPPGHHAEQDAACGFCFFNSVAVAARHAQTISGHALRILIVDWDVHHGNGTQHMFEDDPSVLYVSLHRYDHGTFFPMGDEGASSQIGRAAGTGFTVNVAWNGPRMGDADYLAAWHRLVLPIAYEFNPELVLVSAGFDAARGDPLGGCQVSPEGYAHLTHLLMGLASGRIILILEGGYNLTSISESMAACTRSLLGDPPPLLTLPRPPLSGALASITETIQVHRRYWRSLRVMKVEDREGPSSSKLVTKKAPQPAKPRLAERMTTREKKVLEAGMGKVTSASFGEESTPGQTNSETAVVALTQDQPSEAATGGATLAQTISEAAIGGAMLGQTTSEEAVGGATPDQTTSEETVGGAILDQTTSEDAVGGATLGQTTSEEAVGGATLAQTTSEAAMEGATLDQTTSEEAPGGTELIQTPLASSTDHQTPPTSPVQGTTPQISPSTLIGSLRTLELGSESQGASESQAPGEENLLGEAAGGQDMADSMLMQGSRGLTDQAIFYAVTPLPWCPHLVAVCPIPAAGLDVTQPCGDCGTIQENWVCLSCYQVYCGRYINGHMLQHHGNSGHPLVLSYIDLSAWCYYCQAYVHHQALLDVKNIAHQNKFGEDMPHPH
Nature of the experiment: Inhibition of human recombinant HDAC6 using fluorogenic HDAC substrate measured after 20 mins by fluorescence assay.

Experiment [2] has as its target T1, Histone deacetylase 6. Nature of the experiment: Inhibition of human HDAC6 using fluorogenic as substrate measured after 30 mins by fluorescence based analysis.
A further experiment concerns the target Histone deacetylase 2 (Homo sapiens, UniProt Q92769). Kind of experiment: Inhibition of human HDAC2 using fluorogenic as substrate measured after 30 mins by fluorescence based analysis.
The next experiment concerns the target Histone deacetylase 1 (Homo sapiens, UniProt Q13547). Kind of experiment: Inhibition of human HDAC1 using fluorogenic as substrate measured after 30 mins by fluorescence based analysis.
A further experiment deals with Histone deacetylase 3 (Homo sapiens, UniProt O15379). Nature of the experiment: Inhibition of human HDAC3 using fluorogenic as substrate measured after 30 mins by fluorescence based analysis.
Histone deacetylase 3, sequence (O15379 whole entry): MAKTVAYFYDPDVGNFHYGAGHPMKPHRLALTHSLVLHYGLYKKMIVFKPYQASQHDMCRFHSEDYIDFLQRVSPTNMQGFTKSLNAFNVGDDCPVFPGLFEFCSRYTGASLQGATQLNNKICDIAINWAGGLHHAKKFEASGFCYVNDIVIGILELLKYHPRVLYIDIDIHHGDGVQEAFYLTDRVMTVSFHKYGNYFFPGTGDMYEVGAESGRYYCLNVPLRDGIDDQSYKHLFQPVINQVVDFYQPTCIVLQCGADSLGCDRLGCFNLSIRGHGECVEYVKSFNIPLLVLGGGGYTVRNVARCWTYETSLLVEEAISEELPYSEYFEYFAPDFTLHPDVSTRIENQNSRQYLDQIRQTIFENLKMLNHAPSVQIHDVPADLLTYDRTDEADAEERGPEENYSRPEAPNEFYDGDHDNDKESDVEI

Histone deacetylase 2, sequence (Q92769 whole entry): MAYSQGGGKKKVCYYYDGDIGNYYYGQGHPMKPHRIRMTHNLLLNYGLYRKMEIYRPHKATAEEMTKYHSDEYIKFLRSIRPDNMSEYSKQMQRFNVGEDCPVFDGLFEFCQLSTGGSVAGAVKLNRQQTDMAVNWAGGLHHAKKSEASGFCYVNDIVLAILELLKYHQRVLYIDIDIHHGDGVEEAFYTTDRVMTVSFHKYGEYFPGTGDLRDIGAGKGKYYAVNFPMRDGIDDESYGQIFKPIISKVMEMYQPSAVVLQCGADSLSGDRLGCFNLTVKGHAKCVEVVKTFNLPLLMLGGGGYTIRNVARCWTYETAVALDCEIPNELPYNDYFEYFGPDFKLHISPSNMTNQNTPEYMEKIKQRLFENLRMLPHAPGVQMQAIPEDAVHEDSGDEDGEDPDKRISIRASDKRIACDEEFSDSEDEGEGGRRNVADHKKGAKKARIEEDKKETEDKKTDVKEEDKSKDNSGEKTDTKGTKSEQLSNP
Histone deacetylase 1, sequence (Q13547 whole entry): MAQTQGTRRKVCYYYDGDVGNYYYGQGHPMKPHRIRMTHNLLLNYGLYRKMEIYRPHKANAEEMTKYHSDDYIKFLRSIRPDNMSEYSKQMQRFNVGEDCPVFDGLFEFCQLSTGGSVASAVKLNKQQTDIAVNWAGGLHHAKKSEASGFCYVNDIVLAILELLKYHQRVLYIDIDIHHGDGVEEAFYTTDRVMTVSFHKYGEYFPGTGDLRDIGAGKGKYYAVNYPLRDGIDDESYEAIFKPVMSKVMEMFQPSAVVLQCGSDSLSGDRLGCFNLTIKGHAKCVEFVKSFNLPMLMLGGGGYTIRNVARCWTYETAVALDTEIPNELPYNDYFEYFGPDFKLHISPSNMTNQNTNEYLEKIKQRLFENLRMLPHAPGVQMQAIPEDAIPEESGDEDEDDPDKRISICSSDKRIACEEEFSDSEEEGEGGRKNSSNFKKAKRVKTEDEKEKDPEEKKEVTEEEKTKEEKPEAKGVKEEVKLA

As for `COc1ccccc1NC(=O)N[C@H](C(=O)Nc1ccc(C(=O)NO)cc1)c1ccccc1`, on Histone deacetylase 6 [1], the 50% inhibitory concentration (IC50) is 294 nM.

As for `O=C(NO)c1ccc(NC(=O)[C@@H](NC(=O)c2ccc3ccccc3c2)c2ccccc2)cc1`, the IC50 against Histone deacetylase 6 [2] came out at 376 nM; against Histone deacetylase 2 it was 244 nM; at Histone deacetylase 1 it was 29 nM.

For the compound `O=C(NO)c1ccc(NC(=O)[C@@H](NS(=O)(=O)c2cccc3ccccc23)c2ccccc2)cc1`, the half-maximal inhibitory concentration (IC50) against Histone deacetylase 6 [2] was found to be 295 nM; on Histone deacetylase 2, 171 nM; against Histone deacetylase 1 it was 31 nM; against Histone deacetylase 3, 23 nM.

`O=C(NO)c1ccc(NC(=O)[C@@H](NC(=O)c2cccc(Br)c2)c2ccccc2)cc1`: the values for the IC50 against Histone deacetylase 6 [2] and against Histone deacetylase 2 were 196 nM and 89 nM, respectively.

`CN(C)c1cccc2c(S(=O)(=O)N[C@H](C(=O)Nc3ccc(C(=O)NO)cc3)c3ccccc3)cccc12`: the IC50 on Histone deacetylase 6 [2] came to 366 nM; at Histone deacetylase 2 it was 107 nM.

A word on the IC50: it is the concentration that inhibits the measured activity by half.
